Results as given in patent US8362000B2, “Azetidinyl diamides as monoacylglycerol lipase inhibitors” (Janssen Pharmaceutica NV, priority 2009, dated 2013).
Where a chain is given by its changes, count along the chain named. Read-outs that look alike come from different tables or passages of the source.

Key:
[1] = biological target: T1, purified wild type MGL (wt-MGLL 6H-11-313) (Homo sapiens, UniProt Q99685)
T1 sequence (Q99685 1-303): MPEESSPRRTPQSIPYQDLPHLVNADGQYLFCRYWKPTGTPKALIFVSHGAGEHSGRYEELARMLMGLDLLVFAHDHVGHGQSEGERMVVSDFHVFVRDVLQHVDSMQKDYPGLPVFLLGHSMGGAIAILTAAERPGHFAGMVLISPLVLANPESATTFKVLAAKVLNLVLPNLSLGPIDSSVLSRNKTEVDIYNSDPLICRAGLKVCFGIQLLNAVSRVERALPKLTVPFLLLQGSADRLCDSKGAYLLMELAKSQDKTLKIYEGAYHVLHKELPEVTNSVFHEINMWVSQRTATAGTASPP

mutant MGL = biological target: T2, mutant MGL (Homo sapiens, UniProt Q99685, L169S/L176S); assay: MGL ThermoFluor assay - mutant; assay type: binding
T2 sequence (Q99685 1-303 L169S/L176S): T1 sequence (Q99685 1-303) with L169S, L176S

[2] = ThermoFluor, compound concentration measured by qNMR, read-out: MGL mutant ThermoFluor qKd (using qNMR conc.)
[3] = ThermoFluor, compound concentration measured by qNMR, read-out: MGL mutant ThermoFluor qKd (μM) (using qNMR conc.)
[4] = ThermoFluor thermal stability binding assay, read-out: MGL mutant ThermoFluor Kd
[5] = ThermoFluor concentration-response, read-out: MGL mutant ThermoFluor Kd
[6] = compound concentration measured by qNMR, read-out: MGL mutant ThermoFluor qKd (using qNMR conc.)

Compound | IC50 [1] | Kd (mutant MGL; [5]) | also measured
O=C(c1ccccc1)N1CCN(C2CN(C(=O)c3ccc4c(ccn4-c4ccc(C(F)(F)F)cn4)c3)C2)CC1 [Cpd 586, 5-({3-[4-(Phenylcarbonyl)piperazin-1-yl]azetidin-1-yl}carbonyl)-1-[5-(trifluoromethyl)pyridin-2-yl]-1H-indole] | 112 nM | – | Kd (mutant MGL; [2]): 0.086 µM
O=C(c1ccccc1)N1CCN(C2CN(C(=O)c3ccc4c(cnn4-c4ccc(F)c(F)c4)c3)C2)CC1 [Cpd 590] | 186 nM | – | Kd (mutant MGL; [3]): 0.182 µM
O=C(c1ccccc1)N1CCN(C2CN(C(=O)c3sc4cc(C(F)(F)F)ccc4c3-c3ccccc3)C2)CC1 [Cpd 591] | 212 nM | – | Kd (mutant MGL; [4]): 0.007 µM
O=C(c1ccccc1)N1CCN(C2CN(C(=O)c3ccc4nc(-c5ccccc5)sc4c3)C2)CC1 [Cpd 592, 2-Phenyl-6-({3-[4-(phenylcarbonyl)piperazin-1-yl]azetidin-1-yl}carbonyl)-1,3-benzothiazole] | 253 nM | 0.5 µM | –
Cn1cc(-c2cccc(C(F)(F)F)c2)c2ccc(C(=O)N3CC(N4CCN(C(=O)c5ccccc5)CC4)C3)cc21 [Cpd 593] | 311 nM | 0.01 µM | –
NC(=O)c1cccc(-n2ccc3cc(C(=O)N4CC(N5CCN(C(=O)c6ccccc6)CC5)C4)ccc32)c1 [Cpd 594, 3-[5-({3-[4-(Phenylcarbonyl)piperazin-1-yl]azetidin-1-yl}carbonyl)-1H-indol-1-yl]benzamide] | 449 nM | – | Kd (mutant MGL; [3]): 0.743 µM
O=C(c1ccccc1)N1CCN(C2CN(C(=O)c3ccc4c(ccn4-c4ccc(F)cn4)c3)C2)CC1 [Cpd 596, 1-(5-Fluoropyridin-2-yl)-5-({3-[4-(phenylcarbonyl)piperazin-1-yl]azetidin-1-yl}carbonyl)-1H-indole] | 543 nM | – | Kd (mutant MGL; [2]): 0.628 µM
O=C(c1ccccc1)N1CCN(C2CN(C(=O)c3ccc4c(-c5ccc(C(F)(F)F)cc5)ncnc4c3)C2)CC1 [Cpd 597] | 600 nM | 0.153 µM | –
O=C(c1ccccc1)N1CCN(C2CN(C(=O)c3ccc4nc(-c5cccc(F)c5)sc4c3)C2)CC1 [Cpd 599] | 1030 nM | – | Kd (mutant MGL; [4]): 0.481 µM
O=C(c1ccccc1)N1CCN(C2CN(C(=O)c3cc(-c4cccc(F)c4)c4[nH]ccc4c3)C2)CC1 [Cpd 600] | 1150 nM | – | Kd (mutant MGL; [3]): 1.97 µM
O=C(c1ccccc1)N1CCN(C2CN(C(=O)c3cccc4[nH]c(-c5ccccc5)nc34)C2)CC1 [Cpd 601] | 1550 nM | – | Kd (mutant MGL; [4]): 0.527 µM
O=C(c1ccccc1)N1CCN(C2CN(C(=O)c3cccc4[nH]c(-c5ccc(F)cc5)nc34)C2)CC1 [Cpd 602] | 1720 nM | – | Kd (mutant MGL; [4]): 0.5 µM
O=C(c1ccccc1)N1CCN(C2CN(C(=O)c3ccc4c(ccn4-c4ccncc4)c3)C2)CC1 [Cpd 603, 5-({3-[4-(Phenylcarbonyl)piperazin-1-yl]azetidin-1-yl}carbonyl)-1-pyridin-4-yl-1H-indole] | 1720 nM | – | Kd (mutant MGL; [2]): 0.448 µM
O=C(c1ccccc1)N1CCN(C2CN(C(=O)c3cc4cc(-c5ccccc5)ccc4o3)C2)CC1 [Cpd 605] | 1860 nM | – | Kd (mutant MGL; [4]): 1.89 µM
O=C(c1ccccc1)N1CCN(C2CN(C(=O)c3cccc4[nH]c(-c5ccc(Cl)cc5)nc34)C2)CC1 [Cpd 607] | 2900 nM | – | Kd (mutant MGL; [4]): 1 µM
O=C(c1ccccc1)N1CCN(C2CN(C(=O)c3cccc4[nH]c(-c5ccccc5Cl)nc34)C2)CC1 [Cpd 608] | 4170 nM | – | Kd (mutant MGL; [4]): 1.67 µM
O=C(c1ccccc1)N1CCN(C2CN(C(=O)c3cccc4[nH]c(-c5cccc(F)c5)nc34)C2)CC1 [Cpd 609] | 4330 nM | – | Kd (mutant MGL; [4]): 1 µM
O=C(c1ccc(-n2cnc3ccccc32)cc1)N1CCN(C2CN(C(=O)c3ccccc3)C2)CC1 [Cpd 610] | 10300 nM | 1.29 µM | –
O=C(c1ccc2[nH]c(-c3ccccc3)nc2c1)N1CCN(C2CN(C(=O)c3ccccc3)C2)CC1 [Cpd 611] | 13300 nM | 5.15 µM | –
O=C(c1ccccc1)N1CCN(C2CN(C(=O)c3ccc4c(ccn4-c4ccc(Cl)cn4)c3)C2)CC1 [Cpd 629, 1-(5-Chloropyridin-2-yl)-5-({3-[4-(phenylcarbonyl)piperazin-1-yl]azetidin-1-yl}carbonyl)-1H-indole] | 53 nM | 0.145 µM | –
Cc1cc(-n2ccc3cc(C(=O)N4CC(N5CCN(C(=O)c6ccccc6)CC5)C4)ccc32)ccn1 [Cpd 630, 1-(2-Methylpyridin-4-yl)-5-({3-[4-(phenylcarbonyl)piperazin-1-yl]azetidin-1-yl}carbonyl)-1H-indole] | 714 nM | – | Kd (mutant MGL; [2]): 0.195 µM
O=C(c1ccccc1)N1CCN(C2CN(C(=O)c3cc4ccn(-c5ccc(F)cc5)c4cc3F)C2)CC1 [Cpd 631] | 40 nM | – | Kd (mutant MGL; [6]): 0.052 µM

Compound | IC50 [1] | Kd (mutant MGL; [5]) | also measured
COc1cc(-n2ccc3cc(C(=O)N4CC(N5CCN(C(=O)c6ccccc6)CC5)C4)ccc32)ccc1C#N [Cpd 633] | 62 nM | – | Kd (mutant MGL; [4]): 0.157 µM
CCCCC/C=C\C/C=C\CCCCCCCC(=O)N1CC(N2CCN(C(=O)c3nccs3)CC2)C1 [Cpd 638] | 189 nM | 0.172 µM | Kd (mutant MGL; [2]): 0.264 µM
CCCCC/C=C\C/C=C\C/C=C\C/C=C\CCCC(=O)N1CC(N2CCN(C(=O)c3nccs3)CC2)C1 [Cpd 639] | 419 nM | 0.132 µM | –
CCCCCCCCCCCCCCCCCCCC(=O)N1CC(N2CCN(C(=O)c3nccs3)CC2)C1 [Cpd 640] | 15900 nM | 25 µM | –
N#Cc1ccc(N2CCC(C(=O)N3CC(N4CCN(C(=O)c5nccs5)CC4)C3)CC2)cc1 [Cpd 646] | 7160 nM | 1.61 µM | –
N#Cc1ccc(N2CCC(C(=O)N3CC(N4CCN(C(=O)c5cscn5)CC4)C3)CC2)cc1 [Cpd 647] | 12700 nM | – | Kd (mutant MGL; [4]): > 31.2 µM
COc1c(C(=O)N2CC(N3CCN(C(=O)c4nccs4)CC3)C2)sc2cc(C(F)(F)F)ccc12 [Cpd 649, 1-(1-{[3-Methoxy-6-(trifluoromethyl)-1-benzothiophen-2-yl]carbonyl}azetidin-3-yl)-4-(1,3-thiazol-2-ylcarbonyl)piperazine] | 6 nM | – | Kd (mutant MGL; [6]): 0.001 µM
O=C(c1sc2cc(C(F)(F)F)ccc2c1Cl)N1CC(N2CCN(C(=O)C(F)(F)F)CC2)C1 [Cpd 656, 1-(1-{[3-Chloro-6-(trifluoromethyl)-1-benzothiophen-2-yl]carbonyl}azetidin-3-yl)-4-(trifluoroacetyl)piperazine] | 8 nM | – | Kd (mutant MGL; [2]): 0.101 µM
O=C(c1ccc2nc(N3CCC(F)(F)CC3)sc2c1)N1CC(N2CCN(C(=O)c3nccs3)CC2)C1 [Cpd 671] | 16 nM | – | Kd (mutant MGL; [6]): 0.018 µM
O=C(c1ccc(COCC(F)(F)F)cc1)N1CC(N2CCN(C(=O)c3nccs3)CC2)C1 [Cpd 694] | 47 nM | – | Kd (mutant MGL; [2]): 0.048 µM
O=C1c2ccccc2-c2ccc(C(=O)N3CC(N4CCN(C(=O)c5nccs5)CC4)C3)cc21 [Cpd 698] | 65 nM | – | Kd (mutant MGL; [2]): 0.085 µM
Cc1c(C(=O)N2CCN(C3CN(C(=O)c4nccs4)C3)CC2)sc2cc(C(F)(F)F)ccc12 [Cpd 704] | 96 nM | 0.017 µM | –
CC1(C)C=C(c2ccc(C(=O)N3CC(N4CCN(C(=O)c5nccs5)CC4)C3)cc2)CC(C)(C)O1 [Cpd 706] | 103 nM | 0.001 µM | –
Cc1ccc2c(C(F)(F)F)c(C(=O)N3CC(N4CCN(C(=O)c5nccs5)CC4)C3)sc2c1 [Cpd 707, 1-(1-{[6-Methyl-3-(trifluoromethyl)-1-benzothiophen-2-yl]carbonyl}azetidin-3-yl)-4-(1,3-thiazol-2-ylcarbonyl)piperazine] | 105 nM | 0.002 µM | –
O=C(Nc1ccc(C(=O)N2CC(N3CCN(C(=O)c4nccs4)CC3)C2)cc1)C1CCCCC1 [Cpd 709] | 118 nM | 0.015 µM | –
O=C(c1ccc2c(=O)c3ccccc3oc2c1)N1CC(N2CCN(C(=O)c3nccs3)CC2)C1 [Cpd 710] | 123 nM | – | Kd (mutant MGL; [2]): 0.197 µM
O=C(c1ccc2c(ccn2CC(F)F)c1)N1CC(N2CCN(C(=O)c3nccs3)CC2)C1 [Cpd 711, 1-(2,2-Difluoroethyl)-5-({3-[4-(1,3-thiazol-2-ylcarbonyl)piperazin-1-yl]azetidin-1-yl}carbonyl)-1H-indole] | 127 nM | – | Kd (mutant MGL; [6]): 0.05 µM
Cc1ccc2c(C(F)(F)F)c(C(=O)N3CC(N4CCN(C(=O)c5cscn5)CC4)C3)sc2c1 [Cpd 712, 1-(1-{[6-Methyl-3-(trifluoromethyl)-1-benzothiophen-2-yl]carbonyl}azetidin-3-yl)-4-(1,3-thiazol-4-ylcarbonyl)piperazine] | 127 nM | 0.028 µM | –
O=C(c1cccc(NCc2ccccc2)c1)N1CC(N2CCN(C(=O)c3nccs3)CC2)C1 [Cpd 713] | 135 nM | – | Kd (mutant MGL; [4]): 0.1 µM
O=C(c1nccs1)N1CCN(C2CN(C(=O)c3sc4cc(F)ccc4c3C3CC3)C2)CC1 [Cpd 714, 1-{1-[(3-Cyclopropyl-6-fluoro-1-benzothiophen-2-yl)carbonyl]azetidin-3-yl}-4-(1,3-thiazol-2-ylcarbonyl)piperazine] | 135 nM | 0.005 µM | –
O=C(c1ccc(Oc2cccc(F)n2)cc1)N1CC(N2CCN(C(=O)c3nccs3)CC2)C1 [Cpd 715] | 135 nM | 0.167 µM | –
